Experimental findings from ChEMBL document CHEMBL4665919, “Novel Tricyclic Pyroglutamide Derivatives as Potent RORγt Inverse Agonists Identified using a Virtual Screening Approach” (ACS Med Chem Lett, 2020) are described below.

Molecules are shown by their SMILES.

Data set [1] can be described thus: Drug concentration in IL-23 induced acanthosis in C57BL/6 mouse measured as (3R,5S)-3-Fluoro-5-((3aR,9bR)-9b-((4-fluorophenyl)sulfonyl)-7-(perfluoropropan-2-yl)-2,3,3a,4,5,9b-hexahydro-1H-benzo[e]indole-3-carbonyl)-1-(2-hydroxy-2-methylpropyl)pyrrolidin-2-one at 45 mg/kg, po qd administered for 2 hrs before IL-23 injection measured on day 11. Particulars: in vivo, 24 h, time 1 day, read-out: Ct. The class given is ADME, organism-based.

A short description of data set [2]: AUC in IL-23 induced acanthosis C57BL/6 mouse model of psoriasis measured as (3R,5S)-3-Fluoro-5-((3aR,9bR)-9b-((4-fluorophenyl)sulfonyl)-7-(perfluoropropan-2-yl)-2,3,3a,4,5,9b-hexahydro-1H-benzo[e]indole-3-carbonyl)-1-(2-hydroxy-2-methylpropyl)pyrrolidin-2-one at 5 mg/kg, po qd administered for 9 days 2 hrs before IL-23 injection. In kind it is ADME, organism-based. Conditions: in vivo, 216 h. More on the design: dose 5 mg/kg, time 9 day.

In data set [3] the test system is Mus musculus. As to the kind of experiment: Suppression of ear thickness in IL-23 induced acanthosis C57BL/6 mouse model of psoriasis measured as (3R,5S)-3-Fluoro-5-((3aR,9bR)-9b-((4-fluorophenyl)sulfonyl)-7-(perfluoropropan-2-yl)-2,3,3a,4,5,9b-hexahydro-1H-benzo[e]indole-3-carbonyl)-1-(2-hydroxy-2-methylpropyl)pyrrolidin-2-one at 15 mg/kg, po qd for 9 days 2 hrs before IL-23 injection measured every other day relative to IL-23 antibody treatment. In kind it is functional. Conditions: C57BL/6, po, 216 h, time 9 day.

Data set [4] can be described thus: Cmax in IL-23 induced acanthosis C57BL/6 mouse model of psoriasis measured as (3R,5S)-3-Fluoro-5-((3aR,9bR)-9b-((4-fluorophenyl)sulfonyl)-7-(perfluoropropan-2-yl)-2,3,3a,4,5,9b-hexahydro-1H-benzo[e]indole-3-carbonyl)-1-(2-hydroxy-2-methylpropyl)pyrrolidin-2-one at 45 mg/kg, po qd administered for 9 days 2 hrs before IL-23 injection. Conditions: in vivo, 216 h. More on the design: route oral, dose 45 mg/kg, time 9 day. The class given is ADME, organism-based.

A short description of data set [5]: AUC in IL-23 induced acanthosis C57BL/6 mouse model of psoriasis measured as (3R,5S)-3-Fluoro-5-((3aR,9bR)-9b-((4-fluorophenyl)sulfonyl)-7-(perfluoropropan-2-yl)-2,3,3a,4,5,9b-hexahydro-1H-benzo[e]indole-3-carbonyl)-1-(2-hydroxy-2-methylpropyl)pyrrolidin-2-one at 15 mg/kg, po qd administered for 9 days 2 hrs before IL-23 injection. In kind it is ADME, organism-based. The arrangement: time 9 day, dose 15 mg/kg. Particulars: in vivo, 216 h.

The nature of data set [6]: Ratio of IC90 for inverse agonist activity at RORgammat in human whole blood assessed as IL-17 production by ELISA to drug concentration in IL-23 induced acanthosis in Th17 mouse measured as (3R,5S)-3-Fluoro-5-((3aR,9bR)-9b-((4-fluorophenyl)sulfonyl)-7-(perfluoropropan-2-yl)-2,3,3a,4,5,9b-hexahydro-1H-benzo[e]indole-3-carbonyl)-1-(2-hydroxy-2-methylpropyl)pyrrolidin-2-one at 5 mg/kg, po qd administered for 9 days 2 hrs before IL-23 injection. For orientation: An ELISA detects its analyte on a solid surface through an enzyme-linked reagent.

Data set [7] can be described thus: Drug concentration in IL-23 induced acanthosis in C57BL/6 mouse measured as (3R,5S)-3-Fluoro-5-((3aR,9bR)-9b-((4-fluorophenyl)sulfonyl)-7-(perfluoropropan-2-yl)-2,3,3a,4,5,9b-hexahydro-1H-benzo[e]indole-3-carbonyl)-1-(2-hydroxy-2-methylpropyl)pyrrolidin-2-one at 15 mg/kg, po qd administered for 2 hrs before IL-23 injection measured on day 1. In kind it is ADME, organism-based. Conditions: in vivo, 24 h, time 1 day, read-out: Ct.

Data set [8] in a line: Cmax in IL-23 induced acanthosis C57BL/6 mouse model of psoriasis measured as (3R,5S)-3-Fluoro-5-((3aR,9bR)-9b-((4-fluorophenyl)sulfonyl)-7-(perfluoropropan-2-yl)-2,3,3a,4,5,9b-hexahydro-1H-benzo[e]indole-3-carbonyl)-1-(2-hydroxy-2-methylpropyl)pyrrolidin-2-one at 5 mg/kg, po qd administered for 9 days 2 hrs before IL-23 injection. Particulars: in vivo, 216 h. The class given is ADME, organism-based. More on the design: route oral, dose 5 mg/kg, time 9 day.

Data set [9] is described as follows: Ratio of IC90 for inverse agonist activity at RORgammat in human whole blood assessed as IL-17 production by ELISA to drug concentration in IL-23 induced acanthosis in Th17 mouse measured as (3R,5S)-3-Fluoro-5-((3aR,9bR)-9b-((4-fluorophenyl)sulfonyl)-7-(perfluoropropan-2-yl)-2,3,3a,4,5,9b-hexahydro-1H-benzo[e]indole-3-carbonyl)-1-(2-hydroxy-2-methylpropyl)pyrrolidin-2-one at 15 mg/kg, po qd ….

Data set [10] can be described thus: AUC in IL-23 induced acanthosis C57BL/6 mouse model of psoriasis measured as (3R,5S)-3-Fluoro-5-((3aR,9bR)-9b-((4-fluorophenyl)sulfonyl)-7-(perfluoropropan-2-yl)-2,3,3a,4,5,9b-hexahydro-1H-benzo[e]indole-3-carbonyl)-1-(2-hydroxy-2-methylpropyl)pyrrolidin-2-one at 5 mg/kg, po qd administered for 2 hrs before IL-23 injection measured on day 1. Conditions: in vivo, 24 h. The arrangement: time 1 day, dose 5 mg/kg. The class given is ADME, organism-based.

Data set [11] can be described thus: Toxicity in IL-23 induced acanthosis C57BL/6 mouse model of psoriasis assessed as change in body weight measured as (3R,5S)-3-Fluoro-5-((3aR,9bR)-9b-((4-fluorophenyl)sulfonyl)-7-(perfluoropropan-2-yl)-2,3,3a,4,5,9b-hexahydro-1H-benzo[e]indole-3-carbonyl)-1-(2-hydroxy-2-methylpropyl)pyrrolidin-2-one at 5 to 45 mg/kg, po qd administered for 9 days 2 hrs before IL-23 injection measured every other day. In kind it is organism-based. Conditions: in vivo, dose 5-45 mg/kg.

Data set [12] is described as follows: Drug concentration in IL-23 induced acanthosis in C57BL/6 mouse measured as (3R,5S)-3-Fluoro-5-((3aR,9bR)-9b-((4-fluorophenyl)sulfonyl)-7-(perfluoropropan-2-yl)-2,3,3a,4,5,9b-hexahydro-1H-benzo[e]indole-3-carbonyl)-1-(2-hydroxy-2-methylpropyl)pyrrolidin-2-one at 15 mg/kg, po qd administered for 9 days 2 hrs before IL-23 injection. In kind it is ADME, organism-based. Particulars: in vivo, 216 h, time 9 day, read-out: Ct.

Data set [13] is described as follows: Drug concentration in IL-23 induced acanthosis in C57BL/6 mouse measured as (3R,5S)-3-Fluoro-5-((3aR,9bR)-9b-((4-fluorophenyl)sulfonyl)-7-(perfluoropropan-2-yl)-2,3,3a,4,5,9b-hexahydro-1H-benzo[e]indole-3-carbonyl)-1-(2-hydroxy-2-methylpropyl)pyrrolidin-2-one at 45 mg/kg, po qd administered for 9 days 2 hrs before IL-23 injection. In kind it is ADME, organism-based. Conditions: in vivo, 216 h, time 9 day, read-out: Ct.

Data set [14] in a line: Drug concentration in IL-23 induced acanthosis in C57BL/6 mouse measured as (3R,5S)-3-Fluoro-5-((3aR,9bR)-9b-((4-fluorophenyl)sulfonyl)-7-(perfluoropropan-2-yl)-2,3,3a,4,5,9b-hexahydro-1H-benzo[e]indole-3-carbonyl)-1-(2-hydroxy-2-methylpropyl)pyrrolidin-2-one at 5 mg/kg, po qd administered for 9 days 2 hrs before IL-23 injection. In kind it is ADME, organism-based. Particulars: in vivo, 216 h, time 9 day, read-out: Ct.

Data set [15] is described as follows: Solubility of the compound at pH 6.7. Conditions: buffer. The class given is physicochemical.
Data set [16] is described as follows: AUC in IL-23 induced acanthosis C57BL/6 mouse model of psoriasis measured as (3R,5S)-3-Fluoro-5-((3aR,9bR)-9b-((4-fluorophenyl)sulfonyl)-7-(perfluoropropan-2-yl)-2,3,3a,4,5,9b-hexahydro-1H-benzo[e]indole-3-carbonyl)-1-(2-hydroxy-2-methylpropyl)pyrrolidin-2-one at 45 mg/kg, po qd administered for 9 days 2 hrs before IL-23 injection. Conditions: in vivo, 216 h. The arrangement: time 9 day, dose 45 mg/kg. The class given is ADME, organism-based.

The nature of data set [17]: Cmax in IL-23 induced acanthosis C57BL/6 mouse model of psoriasis measured as (3R,5S)-3-Fluoro-5-((3aR,9bR)-9b-((4-fluorophenyl)sulfonyl)-7-(perfluoropropan-2-yl)-2,3,3a,4,5,9b-hexahydro-1H-benzo[e]indole-3-carbonyl)-1-(2-hydroxy-2-methylpropyl)pyrrolidin-2-one at 15 mg/kg, po qd administered for 9 days 2 hrs before IL-23 injection. The arrangement: route oral, dose 15 mg/kg, time 9 day. In kind it is ADME, organism-based. Particulars: in vivo, 216 h.

The subject of data set [18] is Mus musculus. The data set can be described thus: Suppression of ear thickness in IL-23 induced acanthosis C57BL/6 mouse model of psoriasis measured as (3R,5S)-3-Fluoro-5-((3aR,9bR)-9b-((4-fluorophenyl)sulfonyl)-7-(perfluoropropan-2-yl)-2,3,3a,4,5,9b-hexahydro-1H-benzo[e]indole-3-carbonyl)-1-(2-hydroxy-2-methylpropyl)pyrrolidin-2-one at 45 mg/kg, po qd administered for 9 days 2 hrs before IL-23 injection measured every other day relative to IL-23 antibody treatment. Particulars: C57BL/6, po, 216 h, time 9 day. In kind it is functional.

The nature of data set [19]: AUC in IL-23 induced acanthosis C57BL/6 mouse model of psoriasis measured as (3R,5S)-3-Fluoro-5-((3aR,9bR)-9b-((4-fluorophenyl)sulfonyl)-7-(perfluoropropan-2-yl)-2,3,3a,4,5,9b-hexahydro-1H-benzo[e]indole-3-carbonyl)-1-(2-hydroxy-2-methylpropyl)pyrrolidin-2-one at 15 mg/kg, po qd administered for 2 hrs before IL-23 injection measured on day 1. In kind it is ADME, organism-based. More on the design: time 1 day, dose 15 mg/kg. Particulars: in vivo, 24 h.

Data set [20] is described as follows: Drug concentration in IL-23 induced acanthosis in C57BL/6 mouse measured as (3R,5S)-3-Fluoro-5-((3aR,9bR)-9b-((4-fluorophenyl)sulfonyl)-7-(perfluoropropan-2-yl)-2,3,3a,4,5,9b-hexahydro-1H-benzo[e]indole-3-carbonyl)-1-(2-hydroxy-2-methylpropyl)pyrrolidin-2-one at 5 mg/kg, po qd administered for 2 hrs before IL-23 injection measured on day 1. Conditions: in vivo, 24 h, time 1 day, read-out: Ct. In kind it is ADME, organism-based.

Data set [21] in a line: AUC in IL-23 induced acanthosis C57BL/6 mouse model of psoriasis measured as (3R,5S)-3-Fluoro-5-((3aR,9bR)-9b-((4-fluorophenyl)sulfonyl)-7-(perfluoropropan-2-yl)-2,3,3a,4,5,9b-hexahydro-1H-benzo[e]indole-3-carbonyl)-1-(2-hydroxy-2-methylpropyl)pyrrolidin-2-one at 45 mg/kg, po qd administered for 2 hrs before IL-23 injection measured on day 1. In kind it is ADME, organism-based. The arrangement: time 1 day, dose 45 mg/kg. Particulars: in vivo, 24 h.

Data set [22] in a line: Ratio of IC90 for inverse agonist activity at RORgammat in human whole blood assessed as IL-17 production by ELISA to drug concentration in IL-23 induced acanthosis in […] mouse measured as (3R,5S)-3-Fluoro-5-((3aR,9bR)-9b-((4-fluorophenyl)sulfonyl)-7-(perfluoropropan-2-yl)-2,3,3a,4,5,9b-hexahydro-1H-benzo[e]indole-3-carbonyl)-1-(2-hydroxy-2-methylpropyl)pyrrolidin-2-one at 45 mg/kg, po qd ….

Broadly, the AUC is the area under the concentration-time curve, a measure of exposure. Higher therefore signals more exposure. Broadly, the inhibition in vivo is the drop in the measured response relative to a control, in per cent. For orientation: Cmax means the highest concentration seen after dosing. As usually defined, the solubility is how much of the substance goes into solution per volume. Lower therefore signals a poorly soluble substance. `CC(C)(CN1C(=O)[C@H](F)C[C@H]1C(=O)N1CC[C@@]2(S(=O)(=O)c3ccc(F)cc3)c3ccc(C(F)(C(F)(F)F)C(F)(F)F)cc3CC[C@@H]12)OP(=O)(O)O`: the concentration in data set [1] stood at 910 nM; in data set [7] it was 480 nM; in data set [12], 1360 nM; in data set [13] it was 5820 nM; in [14] it was 150 nM; in [20] it was 210 nM. Moreover, the AUC is 9 µM·h in data set [2]; 45.2 µM·h in data set [5]; 13.9 µM·h in data set [10]; 162.9 µM·h in data set [16]; 30.9 µM·h in data set [19]; 274.3 µM·h in [21]. In the data set on Mus musculus [3], this compound gave an inhibition in vivo at 15 mg/kg of 38%. Moreover, the values for the Cmax in data set [4], in [8] and in data set [17] were 8340 nM, 650 nM and 2580 nM, respectively. Further, the Ratio in [6] was found to be 0.4; in data set [9] it was 3.2; in [22] it was 13.9. In addition, the Activity result in [11] is recorded as “Non-Toxic”. The same compound returned a solubility in data set [15] of at least 4700 µg/mL. In the data set on Mus musculus [18], this compound gave an inhibition in vivo at 45 mg/kg of 67%.
